Laboratory results taken from patent publication US3992371A, “Penicillins substituted with heterocyclic and substituted phenyl groups” (Sumitomo Chemical Company, Limited, priority 1973, dated 1976).

How the values were obtained:
Pseudomonas = conditions: background statement; cited from earlier work
[1] = system: gram-positive and gram-negative bacteria; conditions: background statement; cited from earlier work
[2] = system: Pseudomonas aeruginosa 104; assay: Minimal inhibitory concentration, agar dilution method; assay type: cell-based
Description: When determined according to the agar dilution method, the penicillins (I) afford the minimal inhibitory concentrations against test microorganisms as shown in Table 2.

## CC1(C)S[C@@H]2C(NC(=O)C(N)c3ccccc3)C(=O)N2[C@H]1C(=O)O (stereo partly drawn) [Ampicillin, 6-(α-amino-phenylacetamido)penicillanic acid]
Pseudomonas
  antimicrobial activity against Pseudomonas: do not exert any appreciable antimicrobial activity against Pseudomonas
[1]
  inhibition of the growth of gram-positive and gram-negative bacteria: inhibit the growth of various gram-positive and gram-negative bacteria
[2]
  MIC: > 500 µg/mL

## CC1(C)S[C@@H]2[C@H](NC(=O)C3(N)CCCCC3)C(=O)N2[C@H]1C(=O)O [Cyclacillin, 6-(1-amino-cyclohexanecarboxamide)penicillanic acid]
Pseudomonas
  antimicrobial activity against Pseudomonas: do not exert any appreciable antimicrobial activity against Pseudomonas
[1]
  inhibition of the growth of gram-positive and gram-negative bacteria: inhibit the growth of various gram-positive and gram-negative bacteria

## CC1(C)S[C@@H]2[C@H](NC(=O)[C@H](N)C3=CCC=CC3)C(=O)N2[C@H]1C(=O)O [Epicillin]
Pseudomonas
  antimicrobial activity against Pseudomonas: do not exert any appreciable antimicrobial activity against Pseudomonas
[1]
  inhibition of the growth of gram-positive and gram-negative bacteria: inhibit the growth of various gram-positive and gram-negative bacteria
